In US20140287918A1, “USE OF PEUMUS BOLDUS EXTRACT OBTAINED BY MEANS OF IN VIVO CULTURE AND HAVING ANTI-BOTRYTIS, ALLELOPATHIC AND ANTIOXIDANT ACTIVITY” (UNIVERSIDAD DE SANTIAGO DE CHILE, priority 2011, published 2014):
Values after ≈ are worked out from the molar mass of the structure shown.

Experiment: antioxidant capacity (scavenging of free radical DPPH)
Details: main component of the extract
Description: The extract was obtained by sonication in ethanol 85% at a ratio of 1 g of tissue in 10 volumes of solvent.

- EC50 (antioxidant capacity): 170 µg/mL (≈ 858 µM)
SMILES: COc1cc(C(=O)O)cc(OC)c1O [syringic acid]
